Patent publication US4226863A, “7-Methoxy cephalosporins” (Sumitomo Chemical Company, Limited, priority 1975, dated 1980)
Values after ≈ are worked out from the molar mass of the structure shown.

Columns and labels:
Format in all cases: cell-based
[1] = tested on: Serratia No. 115; experiment: antimicrobial activity, minimum inhibitory concentration, Serratia No. 115
Procedure: (§1) The antimicrobial activities of the compounds prepared in the previous Examples were determined in a usual manner and the minimum inhibitory concentrations (in terms of μg/ml) are set forth in the Table below.

[2] = tested on: Proteus vulgaris HX 19; experiment: antimicrobial activity, minimum inhibitory concentration, Proteus vulgaris HX 19; settings: HX19
Procedure: as §1

[3] = tested on: Enterobacter aerogenes No. 101; experiment: antimicrobial activity, minimum inhibitory concentration, Enterobacter aerogenes No. 101; settings: Klebsiella aerogenes
Procedure: as §1

[4] = tested on: Pseudomonas aeruginosa IID 5142; experiment: antimicrobial activity, minimum inhibitory concentration, Pseudomonas aeruginosa IID 5142; settings: IID5142
Procedure: as §1

[5] = tested on: Escherichia coli NIHJ; experiment: antimicrobial activity, minimum inhibitory concentration, Escherichia coli NIHJ

Row | SMILES | MIC [1] [µg/mL] | MIC [2] [µg/mL] | MIC [3] [µg/mL] | MIC [4] [µg/mL] | MIC [5] [µg/mL]
1 | CO[C@@]1(NC(=O)C(NC(=O)c2ncccc2O)c2ccccc2)C(=O)N2C(C(=O)[O-])=C(C[n+]3ccc(C(N)=O)cc3)CS[C@@H]21 (stereo partly drawn) [Example 24] | 50 (≈ 80.8 µM) | 0.78 (≈ 1.26 µM) | 25 (≈ 40.4 µM) | 12.5 (≈ 20.2 µM) | 12.5 (≈ 20.2 µM)
2 | CO[C@@]1(NC(=O)C(NC(=O)c2cnc3nc(N4CCNCC4)ncc3c2O)c2ccc(O)cc2)C(=O)N2C(C(=O)O)=C(COC(N)=O)CS[C@@H]21 (stereo partly drawn) [Example 25] | 50 (≈ 70.5 µM) | 0.78 (≈ 1.1 µM) | 25 (≈ 35.2 µM) | 6.25 (≈ 8.81 µM) | 12.5 (≈ 17.6 µM)
3 | CO[C@@]1(NC(=O)C(NC(=O)c2nccnc2O)c2ccc(O)cc2)C(=O)N2C(C(=O)O)=C(CSc3nnc(C)s3)CS[C@@H]21 (stereo partly drawn) [Example 27] | 50 (≈ 77.4 µM) | 1.56 (≈ 2.42 µM) | 50 (≈ 77.4 µM) | 25 (≈ 38.7 µM) | 25 (≈ 38.7 µM)
4 | COC1(NC(=O)C(NC(=O)c2cnc3cccnc3c2O)C2=CCC=CC2)C(=O)N2C(C(=O)O)=C(CSc3nnc(C)s3)CSC21 (stereo not drawn) [Example 32] | 25 (≈ 36.7 µM) | 0.39 (≈ 0.572 µM) | 6.25 (≈ 9.17 µM) | 3.13 (≈ 4.59 µM) | 3.13 (≈ 4.59 µM)
5 | COC1(NC(=O)C(NC(=O)c2cnccc2O)C2=CCC=CC2)C(=O)N2C(C(=O)O)=C(COC(N)=O)CSC21 (stereo not drawn) [Example 33] | 100 (≈ 179 µM) | 0.39 (≈ 0.697 µM) | 50 (≈ 89.4 µM) | 12.5 (≈ 22.3 µM) | 12.5 (≈ 22.3 µM)
6 | COC1(NC(=O)C(NC(=O)c2cnccc2O)c2cccs2)C(=O)N2C(C(=O)O)=C(CSc3nnnn3C)CSC21 (stereo not drawn) [Example 34] | 50 (≈ 80.8 µM) | 0.39 (≈ 0.63 µM) | 12.5 (≈ 20.2 µM) | 6.25 (≈ 10.1 µM) | 12.5 (≈ 20.2 µM)
7 | COC1(NC(=O)C(NC(=O)c2cnc3cccnc3c2O)C2=CCCCC2)C(=O)N2C(C(=O)O)=C(COC(C)=O)CSC21 (stereo not drawn) [Example 36] | 50 (≈ 81.7 µM) | 0.39 (≈ 0.638 µM) | 12.5 (≈ 20.4 µM) | 3.13 (≈ 5.12 µM) | 3.13 (≈ 5.12 µM)
8 | COC1(NC(=O)C(NC(=O)c2cnc3cncnc3c2O)c2ccc(O)cc2)C(=O)N2C(C(=O)[O-])=C(C[n+]3ccc(C(N)=O)cc3)CSC21 (stereo not drawn) [Example 37] | 50 (≈ 72.8 µM) | 0.78 (≈ 1.14 µM) | 6.25 (≈ 9.1 µM) | 12.5 (≈ 18.2 µM) | 6.25 (≈ 9.1 µM)
9 | COC1(NC(=O)C(NC(=O)c2cnc3ccncc3c2O)c2ccc(O)cc2)C(=O)N2C(C(=O)O)=C(CSc3nnnn3C)CSC21 (stereo not drawn) [Example 38] | 25 (≈ 36.8 µM) | 0.78 (≈ 1.15 µM) | 12.5 (≈ 18.4 µM) | 12.5 (≈ 18.4 µM) | 12.5 (≈ 18.4 µM)
10 | COc1cc(C(NC(=O)c2cnc3cccnc3c2O)C(=O)NC2(OC)C(=O)N3C(C(=O)O)=C(COC(N)=O)CSC32)ccc1O (stereo not drawn) [Example 39] | 50 (≈ 76.4 µM) | 0.78 (≈ 1.19 µM) | 12.5 (≈ 19.1 µM) | 3.13 (≈ 4.78 µM) | 3.13 (≈ 4.78 µM)
11 | COC1(NC(=O)C(NC(=O)c2cnccc2O)c2ccc(O)c(F)c2)C(=O)N2C(C(=O)O)=C(CSc3nnnn3C)CSC21 (stereo not drawn) [Example 41] | 50 (≈ 77.3 µM) | 0.39 (≈ 0.603 µM) | 12.5 (≈ 19.3 µM) | 6.25 (≈ 9.67 µM) | 12.5 (≈ 19.3 µM)
12 | COC1(NC(=O)C(NC(=O)c2cnccc2O)c2cccc(O)c2)C(=O)N2C(C(=O)O)=C(CSc3nnc(CO)s3)CSC21 (stereo not drawn) [Example 42] | 50 (≈ 75.7 µM) | 0.78 (≈ 1.18 µM) | 25 (≈ 37.8 µM) | 12.5 (≈ 18.9 µM) | 12.5 (≈ 18.9 µM)
13 | COc1nc(OC)c2c(O)c(C(=O)NC(C(=O)NC3(OC)C(=O)N4C(C(=O)O)=C(CSc5nncs5)CSC43)c3ccc(O)cc3)cnc2n1 (stereo not drawn) [Example 43] | 50 (≈ 67.3 µM) | 1.56 (≈ 2.1 µM) | 25 (≈ 33.7 µM) | 12.5 (≈ 16.8 µM) | 12.5 (≈ 16.8 µM)
14 | COC1(NC(=O)C(NC(=O)c2cnccc2O)c2ccc(O)c(O)c2)C(=O)N2C(C(=O)O)=C(COC(N)=O)CSC21 (stereo not drawn) [Example 44] | 100 (≈ 170 µM) | 0.78 (≈ 1.32 µM) | 50 (≈ 84.8 µM) | 12.5 (≈ 21.2 µM) | 12.5 (≈ 21.2 µM)
15 | COC1(NC(=O)C(NC(=O)c2cnc3cccnc3c2O)c2cccs2)C(=O)N2C(C(=O)O)=C(COC(N)=O)CSC21 (stereo not drawn) [Example 48] | 25 (≈ 40.7 µM) | 0.39 (≈ 0.635 µM) | 6.25 (≈ 10.2 µM) | 3.13 (≈ 5.09 µM) | 3.13 (≈ 5.09 µM)
16 | COC1(NC(=O)C(NC(=O)c2nnc(O)nc2O)c2ccccc2)C(=O)N2C(C(=O)O)=C(COC(C)=O)CSC21 (stereo not drawn) [Example 49] | 100 (≈ 174 µM) | 1.56 (≈ 2.72 µM) | 50 (≈ 87 µM) | 25 (≈ 43.5 µM) | 25 (≈ 43.5 µM)
17 | COC1(NC(=O)C(NC(=O)c2nnc(O)nc2O)c2ccc(O)cc2)C(=O)N2C(C(=O)O)=C(CSc3nnnn3C)CSC21 (stereo not drawn) [Example 50] | 50 (≈ 77.3 µM) | 1.56 (≈ 2.41 µM) | 25 (≈ 38.7 µM) | 12.5 (≈ 19.3 µM) | 12.5 (≈ 19.3 µM)
18 | COC1(NC(=O)C(NC(=O)c2nnc(SC)nc2O)c2ccccc2)C(=O)N2C(C(=O)O)=C(COC(N)=O)CSC21 (stereo not drawn) [Example 51] | 100 (≈ 165 µM) | 1.56 (≈ 2.58 µM) | 50 (≈ 82.6 µM) | 25 (≈ 41.3 µM) | 25 (≈ 41.3 µM)
19 | COC1(NC(=O)C(NC(=O)c2nnc(O)nc2O)c2ccc(O)cc2)C(=O)N2C(C(=O)O)=C(COC(N)=O)CSC21 (stereo not drawn) [Example 52] | 100 (≈ 169 µM) | 1.56 (≈ 2.64 µM) | 50 (≈ 84.5 µM) | 25 (≈ 42.3 µM) | 25 (≈ 42.3 µM)
20 | COC1(NC(=O)C(NC(=O)c2nnc(S)nc2O)c2ccccc2)C(=O)N2C(C(=O)O)=C(CSc3nnc(C)s3)CSC21 (stereo not drawn) [Example 53] | 100 (≈ 151 µM) | 1.56 (≈ 2.35 µM) | 50 (≈ 75.4 µM) | 25 (≈ 37.7 µM) | 25 (≈ 37.7 µM)

Continued, values first:

Row | MIC [1] [µg/mL] | MIC [2] [µg/mL] | MIC [3] [µg/mL] | MIC [4] [µg/mL] | MIC [5] [µg/mL] | SMILES
21 | 12.5 (≈ 15.9 µM) | 0.39 (≈ 0.498 µM) | 12.5 (≈ 15.9 µM) | 6.25 (≈ 7.97 µM) | 6.25 (≈ 7.97 µM) | CO[C@@]1(NC(=O)C(NC(=O)c2cnc3nc(N4CCCC4)cnc3c2O)c2ccc(O)cc2)C(=O)N2C(C(=O)O)=C(CSc3n[nH]c(=S)s3)CS[C@@H]21 (stereo partly drawn) [Example 26]
22 | 6.25 (≈ 9.2 µM) | 0.39 (≈ 0.574 µM) | 6.25 (≈ 9.2 µM) | 3.13 (≈ 4.6 µM) | 1.56 (≈ 2.3 µM) | COC1(NC(=O)C(NC(=O)c2cc3ncccc3nc2O)c2ccc(O)cc2)C(=O)N2C(C(=O)O)=C(CSc3nnnn3C)CSC21 (stereo not drawn) [Example 28]
23 | 12.5 (≈ 18.3 µM) | 0.78 (≈ 1.14 µM) | 12.5 (≈ 18.3 µM) | 6.25 (≈ 9.13 µM) | 12.5 (≈ 18.3 µM) | COC1(NC(=O)C(NC(=O)c2cnc3sccc3c2O)c2ccc(O)cc2)C(=O)N2C(C(=O)O)=C(CSc3nnnn3C)CSC21 (stereo not drawn) [Example 29]
24 | 12.5 (≈ 19.8 µM) | 0.39 (≈ 0.618 µM) | 12.5 (≈ 19.8 µM) | 6.25 (≈ 9.91 µM) | 6.25 (≈ 9.91 µM) | COC1(NC(=O)C(NC(=O)c2cnc3scnc3c2O)c2ccc(O)cc2)C(=O)N2C(C(=O)O)=C(COC(N)=O)CSC21 (stereo not drawn) [Example 30]
25 | 25 (≈ 35.9 µM) | 0.39 (≈ 0.561 µM) | 6.25 (≈ 8.98 µM) | 3.13 (≈ 4.5 µM) | 3.13 (≈ 4.5 µM) | COC1(NC(=O)C(NC(=O)c2cnc3cccnc3c2O)c2cccc(O)c2)C(=O)N2C(C(=O)O)=C(CSc3nnc(C)s3)CSC21 (stereo not drawn) [Example 31]
26 | 6.25 (≈ 9.56 µM) | 0.39 (≈ 0.597 µM) | 3.13 (≈ 4.79 µM) | 3.13 (≈ 4.79 µM) | 1.56 (≈ 2.39 µM) | COC1(NC(=O)C(NC(=O)c2cnc3cccnc3c2O)c2ccco2)C(=O)N2C(C(=O)O)=C(CSc3nnnn3C)CSC21 (stereo not drawn) [Example 35]
27 | 12.5 (≈ 16.3 µM) | 0.78 (≈ 1.02 µM) | 6.25 (≈ 8.17 µM) | 3.13 (≈ 4.09 µM) | 6.25 (≈ 8.17 µM) | COC1(NC(=O)C(NC(=O)c2cnc3cccnc3c2O)c2cc(Cl)c(O)c(Cl)c2)C(=O)N2C(C(=O)O)=C(CSc3nnc(C)s3)CSC21 (stereo not drawn) [Example 40]
28 | 12.5 (≈ 17.6 µM) | 0.78 (≈ 1.1 µM) | 12.5 (≈ 17.6 µM) | 6.25 (≈ 8.78 µM) | 3.13 (≈ 4.4 µM) | COC1(NC(=O)C(NC(=O)c2cnc3cccnc3c2O)c2ccc(O)c(O)c2)C(=O)N2C(C(=O)O)=C(CSc3nnc(C)s3)CSC21 (stereo not drawn) [Example 45]
29 | 6.25 (≈ 9.35 µM) | 0.39 (≈ 0.583 µM) | 6.25 (≈ 9.35 µM) | 6.25 (≈ 9.35 µM) | 1.56 (≈ 2.33 µM) | COC1(NC(=O)C(NC(=O)c2cnc3cn[nH]c3c2O)c2ccc(O)cc2)C(=O)N2C(C(=O)O)=C(CSc3nnnn3C)CSC21 (stereo not drawn) [Example 46]
30 | 12.5 (≈ 17.4 µM) | 0.39 (≈ 0.544 µM) | 6.25 (≈ 8.72 µM) | 6.25 (≈ 8.72 µM) | 3.13 (≈ 4.37 µM) | COC1(NC(=O)C(NC(=O)c2cnc3cccnc3c2O)c2ccc(O)cc2)C(=O)N2C(C(=O)O)=C(CSc3ccc4nnnn4n3)CSC21 (stereo not drawn) [Example 47]
